Data set [1] relates to MDCK cells. Details: method as in earlier work. The settings on record: ref 40 (table), read-out: CC50 (50% cytotoxic concentration); cited from earlier work.
The test system of data set [2] is influenza virus A/Puerto Rico/8/34 (H1N1). More on the design: method as in earlier work. As to conditions: ref 40 (table), read-out: IC50 (50% inhibitory concentration); cited from earlier work.
The next data set deals with DENV-2: 00St22A. In words: Plaque reduction neutralization test (PRNT), DENV-2. The class given is cell-based, Dengue virus. The settings on record: DENV-2, BHK-21 cells. The text has this: (§1) The dengue viruses used in this study were DENV-1:VN/2017/D7709, DENV-2: 00St22A, DENV-3: SMLC50, DENV-4: SLMC318. The virus strains were supplied by the Vietnam National Institute of Hygiene and Epidemiology. The four above serotypes of the Dengue virus were propagated in BHK-21 cell lines (provided by Nagasaki University, Japan) in Eagle’s Minimum Essential Medium (EMEM; Gibco Thermo Fischer Scientific, Waltham, MA, USA) with 2% Fetal Bovine Serum (FBS; Sigma Aldrich, St. Louis, MO, USA) at 37 °C under 5% CO2 atmosphere for 5–7 days. The BHK-21 cells were cultured using 10% FBS EMEM medium.
(§2) EMEM (1 mL) containing FBS (2%) was added into each of 24-well plates (with a concentration of […] –1.0 × 10^4 cells/well). The well plates were shaken to induce the formation of identical cell layers. Afterwards, the wells were incubated at 37 °C under 5% CO2 atmosphere overnight until the cell concentration reached at 70–90%. In case this concentration was not yet reached, the incubation was allowed to continue for a further 1 to 2 days.
(§3) The compounds 4–8 and 23 were totally dissolved in EMEM with a concentration of 500 μg/mL, which was serially diluted with step 2 with EMEM containing 2% FBS; the solutions of compounds were kept at 2–8 °C. The viruses were used at the dose of 2.5 × 10^3 PFU/mL in EMEM containing 2% FBS. The virus (100 μL) was added to all the diluted samples. The virus-compounds mixtures were incubated at 37 °C under 5% CO2 atmosphere for 60 min; afterwards, the medium in all wells of the plates was removed. The virus-compounds mixture (50 μL) was added into the wells, according to the designed experimental test concentration/dilution.
(§4) The viral medium was used as the negative control. EMEM (2 mL) containing methyl cellulose (1%) was added and re-incubated at 37 °C under 5% CO2 atmosphere for 4–6 days. The typical DENV-1 and DENV-4-induced CPE appeared after 4 days of incubation, while the durations for DENV-2 and DENV-3 were 5 and 6 days, respectively. These times of incubation allowed the formation of the plaques to be visually observable and countable. The plaques can be observed under a microscope or by eyes. The cells were fixed with formalin (3.7%) for 1 h at room temperature, washed with water, and stained with crystal violet (0.25%) for 1 h at room temperature. Finally, the plaques were counted.

For data set [3], the system named is influenza virus A/Puerto Rico/8/34 (H1N1). In words: organism not typed. In kind it is cell-based. As to conditions: read-out: IC50 (50% inhibitory concentration).
The subject of the next data set is DENV-1:VN/2017/D7709. The experiment in a line: Plaque reduction neutralization test (PRNT), DENV-1. The class given is cell-based, Dengue virus. As to conditions: DENV-1, BHK-21 cells.
From the text: as §1, §2, §3, §4
(In a plaque reduction assay, fewer plaques than in the control indicate reduced infectivity or spread.)

Another data set concerns DENV-4: SLMC318. In words: Plaque reduction neutralization test (PRNT), DENV-4. As to conditions: DENV-4, BHK-21 cells. The class given is cell-based, Dengue virus.
From the text: as §1, §2, §3, §4

The next data set relates to E. coli. More on the design: method as in doi:10.3390/M1078. The settings on record: cited from earlier work.
Another data set relates to DENV-3: SMLC50. In words: Plaque reduction neutralization test (PRNT), DENV-3. As to conditions: DENV-3, BHK-21 cells. The class given is cell-based, Dengue virus.
From the text: as §1, §2, §3, §4

In a further data set the test system is S. aureus. Details: method as in doi:10.3390/M1078. As to conditions: cited from earlier work.
For another data set, the system named is P. aeruginosa. More on the design: method as in doi:10.3390/M1078. The settings on record: cited from earlier work.
In data set [4] the test system is MDCK cells. In words: Cytotoxicity assay (MTT) in MDCK cells. In kind it is cell-based, Canine. The settings on record: 72 h, read-out: CC50 (50% cytotoxic concentration). Here is the method:
(§5) Initially, maximum non-toxic concentrations were determined for compounds 1–22 to exclude their non-specific antiviral activity. The in vitro cytotoxicity of the tested compounds (CC50) was studied in the normal Madin-Darby Canine Kidney cell line (MDCK) by the MTT ((3-(4,5-dimethylthiazol-2-yl)-2,5-diphenyltetrazolium bromide) test. The highest concentration tested was […]. The cytotoxicity of oseltamivir carboxylate and rimantadine was also evaluated as these have been used as reference drugs in antiviral tests. Compounds at concentration that kills no more than 50% of cells (CC50) were used for further investigation of antiviral activity.
(§6) The MDCK cells were seeded onto 96-well culture plates (10^4 cells per well) and incubated at 36 °C in 5% CO2 until continuous monolayer formation. To assess the toxicity of the compounds, a series of their 3-fold dilutions, at concentrations of 300 to 3.7 μg/mL in Eagle’s Minimal Essential Medium (MEM), were prepared. The dilutions were added to the wells of the plates. The cells were incubated for 72 h at 36 °C in a CO2 incubator under 5% CO2. Further, a microtetrazolium (MTT) assay was performed on the 96-well plates. The cells were washed 2 times with saline (0.9% NaCl), and 100 μL/well of MTT solution [3-(4,5-dimethylthiazol-2-yl)-2,5-diphenyltetrazolium bromide] at a concentration of […] in MEM was added. The plates were incubated for 1 h at 36 °C, the liquid was removed, and dimethylsulfoxide (DMSO) (0.1 mL per well) was added. The optical density (OD) of the cells was measured on a Thermo Multiskan FC spectrophotometer (Thermo Fisher Scientific, Waltham, MA, USA) at a wavelength of 540 nm. Based on the obtained data, the CC50, the concentration of the compound that destroys 50% of the cells in the culture, was calculated for each specimen.

Data set [5] can be described thus: Cytotoxicity assay (MTT) in MDCK cells. In kind it is cell-based, Canine. The settings on record: dog, read-out: CC50 (50% cytotoxic concentration). Here is the method:
as §5, §6

Data set [6] in a line: Cytotoxic assay (MTT) against BHK-21 cells. In kind it is cell-based. The settings on record: hamster, read-out: CC50 (50% cytotoxic concentration). How it is done: The cytotoxic evaluation of the extracts was carried out against the BHK-21 cells. Under cultural conditions of EMEM with FBS (10%), the assaying cells were grown in 96-well bottom-transparent plates at a density of 6 × 10^4 cells/mL per well. The compounds that had been dissolved in dimethyl sulfoxide (DMSO) with six different concentrations (500, 250, 125, 62.5, 31.25, 15.625 μg/mL) were added into each well; each concentration was used in triplicate. After incubation at 37 °C under 5% CO2 atmosphere for 48 h, MTT (0.5 mg/mL) was added into each well; afterwards, 4 h incubation was carried out. The liquid in the wells was removed, and DMSO ([…]) was added to each well. The optical absorbance was recorded on a microplate reader at λ = 570 nm (Genious Tecan, Grödig, […]). The optical density in the wells was plotted against the logarithm of compound concentration, and 50% cytotoxic concentration (CC50), the compound concentration decreasing the optical density twice comparing to control wells, was calculated using the appropriate software (Table Curve 2Dv4.USA).

Converted amounts (≈) assume the structure as drawn. Read-outs that look alike come from different tables or passages of the source. Bounds are passed on as bounds.

For `COC(=O)[C@]12CCC(C)(C)CC1C1=CCC3[C@@]4(C)CC[C@H](N)C(C)(C)C4CC[C@@]3(C)[C@]1(C)CC2` (stereo partly drawn) [Compound 21, Methyl 3β-amino-oleanoate], the CC50 in the data set on MDCK cells [1] is 18 µM. For the same compound, the IC50 in data set [2] was 7.9 µM.
Regarding `CC1(C)CC[C@]2(C(=O)NCCNCCN)CC[C@]3(C)C(=CCC4[C@@]5(C)CCC(=O)C(C)(C)C5CC[C@]43C)C2C1` (stereo partly drawn) [Compound 5], in the data set on DENV-2: 00St22A, the “PRNT50 DENV-2 (concentration that reduces plaque number by 50%)” value is “inactive”. The IC50 in the data set on DENV-2: 00St22A (Dengue virus, DENV2, read-out: PRNT50 DENV-2 (concentration that reduces plaque number by 50%)) is 372 ± 15 µM; in data set [3] (MDCK, 72 h) it was 20 to 21 µM; in data set [3], greater than 20 µM; in the data set on DENV-1:VN/2017/D7709 (Dengue virus, DENV1, read-out: PRNT50 DENV-1 (concentration that reduces plaque number by 50%)) it was 220 ± 14 µM; with DENV-4: SLMC318 (Dengue virus, DENV4, read-out: PRNT50 DENV-4 (concentration that reduces plaque number by 50%)), 433 ± 31 µM; in the data set with DENV-3: SMLC50 (Dengue virus, DENV3, read-out: PRNT50 DENV-3 (concentration that reduces plaque number by 50%)) it was 452 ± 26 µM. Also, in the data set with DENV-1:VN/2017/D7709, the “PRNT50 DENV-1 (concentration that reduces plaque number by 50%)” value is “inactive”. Besides, the “PRNT50 DENV-4 (concentration that reduces plaque number by 50%)” value with DENV-4: SLMC318 was “inactive”. In the data set on E. coli, the “MIC against E. coli” value is 25 µM (≈ 13.5 µg/mL). In addition, the “PRNT50 DENV-3 (concentration that reduces plaque number by 50%)” value with DENV-3: SMLC50 was “inactive”. Also, the “MIC against S. aureus” value in the data set with S. aureus was 12.5 µM (≈ 6.75 µg/mL). Further, the “MIC against P. aeruginosa” value with P. aeruginosa was 50 µM (≈ 27 µg/mL). The CC50 in the data set with MDCK cells [4] turned out to be 50 ± 4 µM. Besides, the CC50 at 72 h in data set [5] is 48 µM. The CC50 at 48 h in data set [6] was greater than 463 µM.

The values are drawn from article PMC9738632 (Molecules, 2022).
